Where a name gives a salt, the structure may show the parent alone. Marks after values point to notes of the source that are not given here.
Legend:
[1] = tested on: tracheal phenol red secretion in mice; experiment: phenol red expectoration test in mice; format: in vivo; conditions: colorimetric measurement at 546nm; 30 mg/kg in terms of free base via tail vein 2 times in a row; x ± s, n=12; control 0.095±0.022
Method: Experimental method: 60 mice of both sexes were used and randomly divided into a control (normal saline) group, a Formula I compound group (30 mg/kg, in terms of free base), a Formula V compound group (30 mg/kg, in terms of free base), a Comparative Example group (30 mg/kg, in terms of free base) and ambroxol hydrochloride (30 mg/kg, in terms of free base), 12 rats in each group; the respective medicaments were administered via the tail vein (dissolved in normal saline by adjusting pH or directly dissolved in normal saline) 2 times in a row. 15 minutes after the last administration to the mice, a 5% phenol red solution in normal saline (0.5g/kg) was subcutaneously injected. After 30 minutes, the mice were sacrificed and a section of the trachea was cut from below the thyroid cartilage to the trachea branch. The section was placed in a test tube containing 1 mL of normal saline, shaken and soaked for 30 minutes, and then centrifuged for 10 minutes (3000 r/min). The supernatant was transferred to another test tube, 0.1 mL of 1M NaOH solution was added, and shaken uniformly for a colorimetric measurement at 546nm. The effects of each group on the tracheal phenol red secretion in mice were statistically compared, and the experimental results obtained are shown in Table 5 below. Here, the medicament used for the Comparative Example group was the 4-[(2-amino-3,5-dibromobenzyl)amino]adamantan-1-ol hydrochloride (racemic) prepared in Comparative Example 1. Table 5. Effects on tracheal phenol red secretion in mice (x ± s)

[2] = tested on: acute lung injury in mice induced by oleic acid; experiment: acute lung injury test in mouse (oleic acid-induced, histological grading of lung pathology); format: in vivo, KM mice; conditions: for protective effect against acute lung injury in mice induced by oleic acid: compared with the model control group (P<0.05 or P<0.01), 40 mg/kg free base i.v.; for Overall lung pathology score: group sum, weighted (alveolar wall thickening x 1, inflammatory cell infiltration x 1, lung tissue necrosis x 3), 40 mg/kg free base i.v. once a day for 4 times, model control 81, normal control 21; for Alveolar wall thickening Level 0 / Inflammatory cell infiltration Level 0 / Lung tissue necrosis Level 0: number of mice (11 per group) at score 0 (No pathological change); for Alveolar wall thickening Level 0 / Inflammatory cell infiltration Level 0 / Lung tissue necrosis Level 0 / Alveolar wall thickening Level 1 / Inflammatory cell infiltration Level 1 / Lung tissue necrosis Level 1 / Alveolar wall thickening Level 2 / Inflammatory cell infiltration Level 2 / Lung tissue necrosis Level 2 / Alveolar wall thickening Level 3 / Inflammatory cell infiltration Level 3 / Lung tissue necrosis Level 3 / Alveolar wall thickening Level 4 / Inflammatory cell infiltration Level 4 / Lung tissue necrosis Level 4: 40 mg/kg in terms of free base, intravenously once a day for 4 times, oleic acid 300 mg/kg i.v.; for Alveolar wall thickening Level 1 / Inflammatory cell infiltration Level 1 / Lung tissue necrosis Level 1: number of mice (11 per group) at score 1 (Occasional); for Alveolar wall thickening Level 2 / Inflammatory cell infiltration Level 2 / Lung tissue necrosis Level 2: number of mice (11 per group) at score 2 (Mild); for Alveolar wall thickening Level 3 / Inflammatory cell infiltration Level 3 / Lung tissue necrosis Level 3: number of mice (11 per group) at score 3 (Moderate); for Alveolar wall thickening Level 4 / Inflammatory cell infiltration Level 4 / Lung tissue necrosis Level 4: number of mice (11 per group) at score 4 (Severe)
Method: KM mice, weighing 18-22g, with all 66 being males, were used and randomly grouped into a normal control group, a model control group, a Formula I compound group (40 mg/kg, in terms of free base), a Formula V compound group (40 mg/kg, in terms of free base), a Comparative Example group (40 mg/kg, in terms of free base), and an ambroxol hydrochloride group (40 mg/kg, in terms of free base), 11 animals in each group, and each group was administered intravenously (dissolved in normal saline by adjusting pH or directly dissolved in normal saline) once a day for 4 times, while the model control group and the normal control group were given an equivalent amount of normal saline. 30 minutes after the last administration, except for the normal control group, all other mice were administered 300 mg/kg oleic acid intravenously (prepared into the desired concentration with sterile saline containing 0.1% […] immediately before use), and the vehicle control group was given an equivalent volume of 0.1% BSA saline. The mice were sacrificed 4 hours after the last administration, and the right lobes of the lungs were removed and fixed in a 10% formaldehyde solution. After dehydration, embedding in paraffin, dissection, and staining with HE, they were observed under a microscope for pathological changes of the lung tissues. Here, the medicament used for the Comparative Example group was the 4-[(2-amino-3,5-dibromobenzyl)amino]adamantan-1-ol hydrochloride (racemic) prepared in Comparative Example 1. Table 1. Criteria for histological grading of lung injury
The above indicators are multiplied by different weighting numbers depending on the significance of the pathology (alveolar wall thickening × 1, inflammatory cell infiltration × 1, lung tissue necrosis × 3), and finally added up to obtain an overall lung pathology score. Table 2. Test results of lung pathologies of each group

[3] = tested on: expectoration amount by rat capillary tube expectoration; experiment: rat capillary sputum excretion test; format: in vivo, SD rats; conditions: length of liquid in capillary tube within 90 minutes, 15 mg/kg in terms of free base via tail vein, 30 minutes after administration, n=10, vehicle control 22.7±4.41
Method: 180-220g SD rats of both sexes were used and divided into random groups, with 10 rats in each group, namely a vehicle control group, a Formula I compound group (15 mg/kg, in terms of free base), a Formula V compound group (15 mg/kg, in terms of free base), a Comparative Example group (15 mg/kg, in terms of free base) and ambroxol hydrochloride (15 mg/kg, in terms of free base). The rats were fasted and restrained from water for 12 hours before testing the amount of sputum excretion, and administered the respective medicaments via the tail vein (dissolved in normal saline by adjusting pH or directly dissolved in normal saline). 30 minutes after the administration, they were anesthetized by intraperitoneally injecting 1g/kg of a urethane solution in saline, fixed in supine position, and the trachea was separated after cutting through neck skin. A small hole was pierced by using a syringe needle between the two cartilage rings on the lower edge of the thyroid cartilage, and a capillary tube (with an inner diameter of 0.8mm, and a length of 10cm) was inserted centripetally into the trachea. Sputum was collected while adjusting the angle between the capillary tube and the trachea, and the total number of the length of liquids in the capillary tube (mm) was used to evaluate the expectoration effect. The amount of expectoration of the rats within 90 minutes was recorded. Here, the medicament used for the Comparative Example group was the 4-[(2-amino-3,5-dibromobenzyl)amino]adamantan-1-ol hydrochloride (racemic) prepared in Comparative Example 1. Table 4. Results of the effect on the expectoration amount by rat capillary tube expectoration

[4] = tested on: ammonia-induced coughing response in mice; experiment: cough response of mice induced by ammonia water; format: in vivo, KM mice; conditions: for reduction of the number of coughs: compared with the model control group (P<0.05 or P<0.01), 15 mg/kg free base i.v.; for Number of coughs (times): within 3 minutes after concentrated ammonia, 15 mg/kg in terms of free base i.v., 30 minutes after administration, x ± s, n=10, model control 41.7±8.76
Method: 50 KM mice, weighing 18-22g, of both sexes were used and randomly divided into 5 groups, a model control group, a Formula I compound group (15 mg/kg, in terms of free base), a Formula V compound group (15 mg/kg, in terms of free base), a Comparative Example group (15 mg/kg, in terms of free base), and an ambroxol hydrochloride group (15 mg/kg, in terms of free base), 10 animals in each group, and were administered intravenously (dissolved in normal saline by adjusting pH or directly dissolved in normal saline). 30 minutes after the administration, the mice were put in an inverted beaker with a volume of 500ml and a cotton ball inside. Timing was started once 0.2ml of concentrated ammonia/mouse was added onto the cotton ball. The number of coughs of each animal within 3 minutes was observed and recorded. Here, the medicament used for the Comparative Example group was the 4-[(2-amino-3,5-dibromobenzyl)amino]adamantan-1-ol hydrochloride (racemic) prepared in Comparative Example 1. Table 3. Effect on ammonia-induced coughing response in mice (x ± s, n=10)

Compound | Phenol red secretion (OD number) [1] | protective effect against acute lung injury in mice induced by oleic acid [2] | Overall lung pathology score [2] | Alveolar wall thickening Level 0 [2] | Inflammatory cell infiltration Level 0 [2] | Lung tissue necrosis Level 0 [2] | Alveolar wall thickening Level 1 [2] | Inflammatory cell infiltration Level 1 [2] | Lung tissue necrosis Level 1 [2] | Alveolar wall thickening Level 2 [2] | Inflammatory cell infiltration Level 2 [2] | Lung tissue necrosis Level 2 [2] | Alveolar wall thickening Level 3 [2] | Inflammatory cell infiltration Level 3 [2] | Lung tissue necrosis Level 3 [2] | Alveolar wall thickening Level 4 [2] | Inflammatory cell infiltration Level 4 [2] | Lung tissue necrosis Level 4 [2] | Expectoration amount in 90min (mm) [3] | reduction of the number of coughs [4] | other results
Cl.Nc1c(Br)cc(Br)cc1CNC1C2CC3CC1CC(O)(C3)C2 (racemic) [Compound of Comparative Example, 4-[(2-amino-3,5-dibromobenzyl)amino]adamantan-1-ol hydrochloride (racemic)] | 0.223±0.058 OD number | definite protective effect | 44* | 1 | 1 | 8 | 2 | 6 | 2 | 8 | 4 | 1 | 0 | 0 | 0 | 0 | 0 | 0 | 39.9±5.43 mm | significantly reduce the number of coughs | Number of coughs (times) [4]: 25.7±6.40 times
Nc1c(Br)cc(Br)cc1CN[C@H]1CC[C@H](O)CC1 [Ambroxol hydrochloride] | 0.135±0.023 OD number | – | 54 | 2 | 0 | 6 | 4 | 4 | 4 | 4 | 7 | 0 | 1 | 0 | 1 | 0 | 0 | 0 | 30.1±4.95 mm | significantly reduce the number of coughs | Number of coughs (times) [4]: 32.7±8.55 times
Nc1c(Br)cc(Br)cc1CN[C@@H]1[C@@H]2C[C@@H]3C[C@H]1C[C@@](O)(C3)C2 [Compound of Formula I, trans-4-[(2-amino-3,5-dibromobenzyl)amino]adamantan-1-ol] | 0.279±0.063 OD number | definite protective effect | – | 1 | 3 | 11 | 7 | 7 | 0 | 3 | 1 | 0 | 1 | 0 | 0 | 0 | 0 | 0 | – | significantly reduce the number of coughs | Overall lung pathology score ([2]; 40 mg/kg): 23^**▲; Expectoration amount in 90min (mm) ([3]; 15 mg/kg): 45.9±6.79 mm; Number of coughs (times) ([4]; 15 mg/kg): 19.2±5.98 times

Source: patent EP4310070A1, “USE OF TRANS AMANTADINE DERIVATIVE OR SALT THEREOF” (Chengdu Shibeikang Biomedical Technology Co., Ltd., priority 2021, dated 2022)
